Laboratory results taken from patent US12258338B2, “Modulators of the integrated stress response pathway” (EVOTEC INTERNATIONAL GMBH, priority 2019, dated 2025).
In brackets after ≈: the same amount, converted by molar mass. Like-named read-outs stand apart in the source and are kept apart here.

Assays:
ATF4 = test: HEK-ATF4 High Content Imaging assay (prevention of Tunicamycin induced ISR; ATF4 signal ratio between nucleus and cytoplasm); assay type: cell-based; conditions: Homo sapiens; Wild-type HEK293 cells, Tunicamycin induced ISR, 6 h; read-out: IIEK-ATF4 Activity
Protocol: HEK-ATF4 High Content Imaging Assay
Example compounds were tested in the HEK-ATF4 High Content Imaging assay to assess their pharmacological potency to prevent Tunicamycin induced ISR. Wild-type HEK293 cells were plated in 384-well imaging assay plates at a density of 12,000 cells per well in growth medium (containing DMEM/F12, 10% FBS, 2 mM L-Glutamine, 100 U/mL Penicillin-100 μg/mL Streptomycin) and incubated at 37° C., 5% CO2. 24 h later, the medium was changed to 50 μL assay medium per well (DMEM/F12, 0.3% FBS, 2 mM L-Glutamine, 100 U/mL Penicillin-100 μg/mL Streptomycin). Example compounds were serially diluted in DMSO, spotted into intermediate plates and prediluted with assay medium containing 3.3 μM Tunicamycin to give an 11-fold excess of final assay concentration. In addition to the example compound testing area, the plates also contained multiples of control wells for assay normalization purposes, wells containing Tunicamycin but no example compounds (High control), as well as wells containing neither example compound nor Tunicamycin (Low control). The assay was started by transferring 5 μL from the intermediate plate into the assay plates, followed by incubation for 6 h at 37° C., 5% CO2. Subsequently, cells were fixed (4% PFA in PBS, 20 min at r.t.) and submitted to indirect ATF4 immunofluorescence staining (primary antibody rabbit anti ATF4, clone D4B8, Cell Signaling Technologies; secondary antibody Alexa Fluor 488 goat anti-rabbit IgG (H+L), Thermofisher Scientific). Nuclei were stained using Hoechst dye (Thermofisher Scientific), and plates were imaged on an Opera Phenix High Content imaging platform equipped with 405 nm and 488 nm excitation. Finally, images were analyzed using script based algorithms. The main readout HEK-ATF4 monitored the ATF4 signal ratio between nucleus and cytoplasm. Tunicamycin induced an increase in the overall ATF4 ratio signal, which was prevented by ISR modulating example compounds. In addition, HEK-CellCount readout was derived from counting the number of stained nuclei corresponding to healthy cells. This readout served as an internal toxicity control.

[1] = Thermodynamic (Equilibrium) solubility in selected buffer; assay type: physicochemical; conditions: Table 25; for solubility: aqueous buffer, thermodynamic from solid
Protocol: Protocol—Thermodynamic (Equilibrium) Solubility in Selected Buffer
Example compounds were tested in the Thermodynamic (Equilibrium) solubility in selected buffer assay. The test compound, in powder form, was weighted into a 4 mL glass vial and a calculated volume of selected medium was added to reach the target concentration of the solubility test (1 mg/mL). The solution was then stirred overnight at r.t. protected from the light. The solution was filtered through a 0.45 μm PTFE membrane at ambient temperature. An aliquot of the resulting filtrate was quantified using UPLC-UV method described below against a reference solution of the test compound, 0.8 mg/mL in DMSO. Media compositions: Phosphate buffer 50 mM (pH=2.0) […] of NaH2PO4, H2O in 200 mL of ultrapurified water adjusted at pH 2 with phosphoric acid 85%; Acetate buffer 50 mM (pH=5.5) 820 mg of anhydrous sodium acetate in 200 mL of ultrapurified water adjusted at pH 5.5 with acetic acid 99.8%; Phosphate buffer 50 mM (pH=7.4) 40.5 mL of Na2HPO4 0.1 M solution+9.5 mL of NaH2PO4 0.1 M solution. Analytical conditions: UPLC-UV-MS analyses were performed with a Waters Acquity UPLC HClass-PDA-QDa system using a reverse phase Acquity BEH C18 column (2.1 mm×50 mm, 1.7 μm; temperature: 40° C.) and a gradient of 10-95% B (A=0.1% formic acid in H2O; B=0.05% formic acid in ACN) over 1.8 min then 100% B for 0.8 min, with an injection volume of 0.4 μL at flow rate of 0.65 mL/min. UV chromatograms were recorded at 220 nm, 254 nm and 290 nm using a photo diode array detector. Mass spectra were recorded in the 150 to 900 M/Z range at a sampling rate of 10 scans per sec using a QDa detector. Data were integrated using Empower®3 software. Data Analysis: Equilibrium solubility of the test compound in the selected medium was calculated through the ratio of the surface area of the UV chromatographic peak of the compound in the filtrate to the surface of the UV chromatographic peak of the compound in the reference solution.

[2] = acetate buffer 50 mM, pH 5.5, read-out: Solubility (μg/mL) pH 5.5
[3] = phosphate buffer 50 mM, pH 7.4, read-out: Solubility (μg/mL) pH 7.4

Compound	IC50 (ATF4) [µM]	also measured
O=C(COc1ccc(Cl)c(F)c1)N[C@H]1CC[C@H](c2nnc(-c3ccc(Cl)cc3)o2)NC1=O (racemic) [Example 37, Rac-2-(4-chloro-3-fluorophenoxy)-N-[6-[5-(4-chlorophenyl)-1,3,4-oxadiazol-2-yl]-2-oxopiperidin-3-yl]acetamide]	0.001 to 0.5	
C[C@H](Oc1ccc(Cl)cc1)C(=O)N[C@H]1CC[C@H](c2nnc(-c3ccc(C(F)(F)F)cc3)o2)NC1 (single isomer, unassigned) [Example 107]	2 to 15	
O=C(CO[C@H]1C[C@@H](OC(F)(F)F)C1)N[C@@H]1CC[C@@H](c2nnc(-c3ccc(Cl)cc3)o2)NC1 [Example 5]		solubility [1, 2]: 215 µg/mL (≈ 453 µM); Solubility (μg/mL) pH 2.0 ([1]; pH 2.0): quant.^#; solubility [1, 3]: 278 µg/mL (≈ 585 µM)
O=C(COc1ccc(Cl)cc1F)N[C@H]1CC[C@H](c2nnc(OCCC(F)(F)F)o2)NC1 [Example 17, 2-(4-chloro-2-fluorophenoxy)-N-[(3S,6R)-6-[5-(3,3,3-trifluoropropoxy)-1,3,4-oxadiazol-2-yl]piperidin-3-yl]acetamide]	2 to 15	
O=C(COc1ccc(F)c(Cl)c1)N[C@H]1CC[C@H](c2nnc(OCCC(F)(F)F)o2)NC1 [Example 18, 2-(3-chloro-4-fluorophenoxy)-N-[(3S,6R)-6-[5-(3,3,3-trifluoropropoxy)-1,3,4-oxadiazol-2-yl]piperidin-3-yl]acetamide]	0.5 to 2	
O=C(COc1ccc(C(F)(F)F)cc1)N[C@H]1CC[C@H](c2nnc(OCCC(F)(F)F)o2)NC1 [Example 19, 2-[4-(trifluoromethyl)phenoxy]-N-[(3S,6R)-6-[5-(3,3,3-trifluoropropoxy)-1,3,4-oxadiazol-2-yl]piperidin-3-yl]acetamide]	0.5 to 2	
O=C(COc1ccc(Cl)c(Cl)c1)N[C@H]1CC[C@H](c2nnc(OCCC(F)(F)F)o2)NC1 [Example 20, 2-(3,4-dichlorophenoxy)-N-[(3S,6R)-6-[5-(3,3,3-trifluoropropoxy)-1,3,4-oxadiazol-2-yl]piperidin-3-yl]acetamide]	0.001 to 0.5	
O=C(COc1ccc(Cl)c(F)c1F)N[C@H]1CC[C@H](c2nnc(OCCC(F)(F)F)o2)NC1 [Example 21, 2-(4-chloro-2,3-difluorophenoxy)-N-[(3S,6R)-6-[5-(3,3,3-trifluoropropoxy)-1,3,4-oxadiazol-2-yl]piperidin-3-yl]acetamide]	0.5 to 2	
O=C(COc1cc(F)c(Cl)c(F)c1)N[C@H]1CC[C@H](c2nnc(OCCC(F)(F)F)o2)NC1 [Example 22, 2-(4-chloro-3,5-difluorophenoxy)-N-[(3S,6R)-6-[5-(3,3,3-trifluoropropoxy)-1,3,4-oxadiazol-2-yl]piperidin-3-yl]acetamide]	0.5 to 2	
O=C(COc1ccc(C(F)(F)F)c(F)c1)N[C@H]1CC[C@H](c2nnc(OCCC(F)(F)F)o2)NC1 [Example 23, 2-[3-fluoro-4-(trifluoromethyl)phenoxy]-N-[(3S,6R)-6-[5-(3,3,3-trifluoropropoxy)-1,3,4-oxadiazol-2-yl]piperidin-3-yl]acetamide]	0.001 to 0.5	
O=C(N[C@H]1CC[C@H](c2nnc(OCCC(F)(F)F)o2)NC1)C(F)(F)Oc1ccc(Cl)c(F)c1 [Example 24, 2-(4-chloro-3-fluorophenoxy)-2,2-difluoro-N-[(3S,6R)-6-[5-(3,3,3-trifluoropropoxy)-1,3,4-oxadiazol-2-yl]piperidin-3-yl]acetamide]	0.5 to 2	
O=C(COc1ccc(C(F)(F)F)c(Cl)c1)N[C@H]1CC[C@H](c2nnc(OCCC(F)(F)F)o2)NC1 [Example 25, 2-[3-chloro-4-(trifluoromethyl)phenoxy]-N-[(3S,6R)-6-[5-(3,3,3-trifluoropropoxy)-1,3,4-oxadiazol-2-yl]piperidin-3-yl]acetamide]	0.001 to 0.5	
O=C(COc1cc(Cl)c(Cl)c(Cl)c1)N[C@H]1CC[C@H](c2nnc(OCCC(F)(F)F)o2)NC1 [Example 26, 2-(3,4,5-trichlorophenoxy)-N-[(3S,6R)-6-[5-(3,3,3-trifluoropropoxy)-1,3,4-oxadiazol-2-yl]piperidin-3-yl]acetamide]	2 to 15	
O=C(COc1ccc(Br)cc1)N[C@H]1CC[C@H](c2nnc(OCCC(F)(F)F)o2)NC1 [Example 27, 2-(4-bromophenoxy)-N-[(3S,6R)-6-[5-(3,3,3-trifluoropropoxy)-1,3,4-oxadiazol-2-yl]piperidin-3-yl]acetamide]	0.001 to 0.5	
O=C(COc1cccc(C(F)(F)F)c1)N[C@H]1CC[C@H](c2nnc(OCCC(F)(F)F)o2)NC1 [Example 28, 2-[3-(trifluoromethyl)phenoxy]-N-[(3S,6R)-6-[5-(3,3,3-trifluoropropoxy)-1,3,4-oxadiazol-2-yl]piperidin-3-yl]acetamide]	2 to 15	
Cc1ccc(-c2nnc([C@H]3CC[C@H](NC(=O)COc4ccc(Cl)c(F)c4)CN3)o2)cn1 [Example 34, 2-(4-chloro-3-fluorophenoxy)-N-[(3S,6R)-6-[5-(6-methylpyridin-3-yl)-1,3,4-oxadiazol-2-yl]piperidin-3-yl]acetamide]	0.5 to 2	solubility [1, 2]: 239 µg/mL (≈ 536 µM); solubility ([1]; phosphate buffer 50 mM, pH 2.0, read-out: Solubility (μg/mL) pH 2.0): 994 µg/mL (≈ 2230 µM); solubility [1, 3]: 153 µg/mL (≈ 343 µM)
O=C(COc1ccc(Cl)c(F)c1)N[C@@H]1CC[C@H](c2nnc(-c3ccc(Cl)cc3)o2)NC1 [Example 36, 2-(4-chloro-3-fluorophenoxy)-N-[(3R,6R)-6-[5-(4-chlorophenyl)-1,3,4-oxadiazol-2-yl]piperidin-3-yl]acetamide]	0.5 to 2	
CC(C)(C)OC(=O)N1C[C@@H](NC(=O)COc2ccc(Cl)c(F)c2)CC[C@@H]1c1nnc(-c2ccc(Cl)cc2)o1 [Example 39, tert-butyl (2R,5S)-5-[2-(4-chloro-3-fluorophenoxy)acetamido]-2-[5-(4-chlorophenyl)-1,3,4-oxadiazol-2-yl]piperidine-1-carboxylate]	2 to 15	
COCCN1C[C@H](NC(=O)COc2ccc(Cl)c(F)c2)CC[C@H]1c1nnc(-c2ccc(Cl)cc2)o1 [Example 48, 2-(4-chloro-3-fluoro-phenoxy)-N-[(3R,6S)-6-[5-(4-chlorophenyl)-1,3,4-oxadiazol-2-yl]-1-(2-methoxyethyl)piperidin-3-yl]acetamide]	0.5 to 2	
CC(COc1nnc([C@H]2CC[C@H](NC(=O)COc3ccc(Cl)c(F)c3)CN2)o1)C(F)(F)F (stereo partly drawn) [Example 63, 2-(4-chloro-3-fluorophenoxy)-N-[(3S,6R)-6-[5-(3,3,3-trifluoro-2-methylpropoxy)-1,3,4-oxadiazol-2-yl]piperidin-3-yl]acetamide]	0.5 to 2	
O=C(COc1ccc(Cl)c(F)c1)N[C@H]1CC[C@H](c2nnc(OCC(F)(F)C(F)(F)F)o2)NC1 [Example 73, 2-(4-chloro-3-fluorophenoxy)-N-[(3S,6R)-6-[5-(2,2,3,3,3-pentafluoropropoxy)-1,3,4-oxadiazol-2-yl]piperidin-3-yl]acetamide]	0.5 to 2	
O=C(COc1ccc(Cl)c(F)c1)N[C@H]1CC[C@H](c2nnc(OCCCC(F)(F)F)o2)NC1 [Example 74, 2-(4-chloro-3-fluorophenoxy)-N-[(3S,6R)-6-[5-(4,4,4-trifluorobutoxy)-1,3,4-oxadiazol-2-yl]piperidin-3-yl]acetamide]	0.001 to 0.5	
